Assay results as given in patent US20260232812A1, “BIFUNCTIONAL MOLECULES FOR TARGETED PROTEIN DEGRADATION” (Amphista Therapeutics Limited, priority 2022, published 2026).

Target: T1, BRD4 (Homo sapiens, UniProt O60885)
T1 construct: HEK293 containing a HiBit insertion for BRD4; endogenous in cells; host or cells: HEK293 with a HiBiT insertion for BRD4
Test: Assay 1 - Degradation of HiBit-BRD4 in HEK293
Type: cell-based
Details: HiBit-BRD4 in HEK293, 6 h treatment
Description: 1.1 Assay 1-Degradation of HiBit-BRD4 in HEK293
HEK293 containing a HiBit insertion for BRD4 were plated in 384-well tissue culture plates at a density of 8×10^4 per well in a volume of 36 μL and incubated overnight at 37° C. and 5% CO2. Wells were treated with test compounds for 6 h prior to addition of the NanoLuc substrate and reading on a […]. Degradation data was plotted and analysed using […] (Graphpad).

SMILES	DC50 [nM]	Dmax [%]
CC(=O)N1c2ccc(-c3ccc(C(=O)NCCOCCOCCOCCOCCOCCNC(=O)C4CC(c5ccccc5)CN(C(=O)/C(C#N)=C/C(C)(C)C)C4)cc3)cc2[C@H](Nc2ccc(Cl)cc2)C[C@@H]1C (some centres unmarked) [Example 13aa]	> 200	≥ 70
CC(=O)N1c2ccc(-c3ccc(C(=O)NCCOCCOCCOCCOCCOCCNC(=O)C4CC(c5cccc(C)c5)CN(C(=O)/C(C#N)=C/c5ccn(C)n5)C4)cc3)cc2[C@H](Nc2ccc(Cl)cc2)C[C@@H]1C (some centres unmarked) [Example 13av]	> 200	50 to 70
CC(=O)N1c2ccc(-c3ccc(C(=O)NCCOCCOCCOCCOCCOCCNC(=O)CN4CCC(C5CCCN5C(=O)/C(C#N)=C/c5cscn5)CC4)cc3)cc2[C@H](Nc2ccc(Cl)cc2)C[C@@H]1C (some centres unmarked) [Example 14a]	25 to 200	≥ 70
CC(=O)N1c2ccc(-c3ccc(C(=O)NCCOCCOCCOCCOCCOCCNC(=O)C4CC(C(C)C)CN(C(=O)/C(C#N)=C/c5ccc(F)cc5)C4)cc3)cc2[C@H](Nc2ccc(Cl)cc2)C[C@@H]1C (some centres unmarked) [Example 13n]	> 200	50 to 70
CC(=O)N1c2ccc(-c3ccc(C(=O)NCCOCCOCCOCCOCCOCCNC(=O)C4CC(c5cccc(C)c5)CN(C(=O)/C(C#N)=C/c5ccc(F)cc5)C4)cc3)cc2[C@H](Nc2ccc(Cl)cc2)C[C@@H]1C (some centres unmarked) [Example 13aw]	> 200	< 50
CC(=O)N1c2ccc(-c3ccc(C(=O)NCCOCCOCCOCCOCCOCCNC(=O)C4CC(C)CN(C(=O)/C(C#N)=C/c5ccc(F)cc5)C4)cc3)cc2[C@H](Nc2ccc(Cl)cc2)C[C@@H]1C (some centres unmarked) [Example 13i]	> 200	30 to 50
CC(=O)N1c2ccc(-c3ccc(C(=O)NCCOCCOCCOCCOCCOCCNC(=O)C4CC(c5ccc(C(F)(F)F)cc5)CN(C(=O)/C(C#N)=C/C(C)(C)CN5CCOCC5)C4)cc3)cc2[C@H](Nc2ccc(Cl)cc2)C[C@@H]1C (some centres unmarked) [Example 13an]	25 to 200	30 to 50
CC(=O)N1c2ccc(-c3ccc(C(=O)NCCOCCOCCOCCOCCOCCNC(=O)C4CC(C(C)C)CN(C(=O)/C(C#N)=C/c5ccn(C)n5)C4)cc3)cc2[C@H](Nc2ccc(Cl)cc2)C[C@@H]1C (some centres unmarked) [Example 13m]	25 to 200	50 to 70
CC(=O)N1c2ccc(-c3ccc(C(=O)NCCOCCOCCOCCOCCOCCNC(=O)C4CC(C5CCCCC5)CN(C(=O)/C(C#N)=C/C(C)(C)C)C4)cc3)cc2[C@H](Nc2ccc(Cl)cc2)C[C@@H]1C (some centres unmarked) [Example 13q]	25 to 200	50 to 70
CC(=O)N1c2ccc(-c3ccc(C(=O)NCCOCCOCCOCCOCCOCCNC(=O)C4CC(C5CCCCC5)CN(C(=O)/C(C#N)=C/c5ccc(F)cc5)C4)cc3)cc2[C@H](Nc2ccc(Cl)cc2)C[C@@H]1C (some centres unmarked) [Example 13s]	25 to 200	≥ 70
CC(=O)N1c2ccc(-c3ccc(C(=O)NCCOCCOCCOCCOCCOCCNC(=O)C4CC(c5ccc(C(F)(F)F)cc5)CN(C(=O)/C(C#N)=C/C(C)(C)C)C4)cc3)cc2[C@H](Nc2ccc(Cl)cc2)C[C@@H]1C (some centres unmarked) [Example 13ak]	25 to 200	≥ 70
CC(=O)N1c2ccc(-c3ccc(C(=O)NCCOCCOCCOCCOCCOCCNC(=O)C4CC(C(C)C)CN(C(=O)/C(C#N)=C/c5nccs5)C4)cc3)cc2[C@H](Nc2ccc(Cl)cc2)C[C@@H]1C (some centres unmarked) [Example 13k]	< 25	≥ 70
CC(=O)N1c2ccc(-c3ccc(C(=O)NCCOCCOCCOCCOCCOCCNC(=O)C4CC(c5cccc(C)c5)CN(C(=O)/C(C#N)=C/C(C)(C)C)C4)cc3)cc2[C@H](Nc2ccc(Cl)cc2)C[C@@H]1C (some centres unmarked) [Example 13au]	25 to 200	≥ 70
CC(=O)N1c2ccc(-c3ccc(C(=O)NCCOCCOCCOCCOCCOCCNC(=O)C4CCCN(C(=O)/C(C#N)=C/C(C)(C)C)C4)cc3)cc2[C@H](Nc2ccc(Cl)cc2)C[C@@H]1C (some centres unmarked) [Example 13b]	25 to 200	≥ 70

Now from value to molecule:

DC50 [nM]	Dmax [%]	SMILES
25 to 200	≥ 70	CC(=O)N1c2ccc(-c3ccc(C(=O)NCCOCCOCCOCCOCCOCCNC(=O)[C@@H]4CN(C(=O)/C(C#N)=C/C(C)(C)C)C[C@H]4C)cc3)cc2[C@H](Nc2ccc(Cl)cc2)C[C@@H]1C [Example 15b]
> 200	50 to 70	CC(=O)N1c2ccc(-c3ccc(C(=O)NCCOCCOCCOCCOCCOCCNC(=O)[C@@H]4CN(C(=O)/C(C#N)=C/c5ccn(C)n5)C[C@H]4C4CCCCC4)cc3)cc2[C@H](Nc2ccc(Cl)cc2)C[C@@H]1C [Example 15r]
> 200	≥ 70	CC(=O)N1c2ccc(-c3ccc(C(=O)NCCOCCOCCOCCOCCOCCNC(=O)[C@@H]4CN(C(=O)/C(C#N)=C/c5ccn(C)n5)C[C@H]4c4cccc(C)c4)cc3)cc2[C@H](Nc2ccc(Cl)cc2)C[C@@H]1C [Example 15al]
25 to 200	30 to 50	CC(=O)N1c2ccc(-c3ccc(C(=O)NCCOCCOCCOCCOCCOCCNC(=O)[C@@H]4CN(C(=O)/C(C#N)=C/c5ccn(C)n5)C[C@H]4c4ccccc4)cc3)cc2[C@H](Nc2ccc(Cl)cc2)C[C@@H]1C [Example 15w]
25 to 200	30 to 50	CC(=O)N1c2ccc(-c3ccc(C(=O)NCCOCCOCCOCCOCCOCCNC(=O)[C@@H]4CN(C(=O)/C(C#N)=C/C(C)(C)CN5CCOCC5)C[C@H]4c4ccc(F)cc4)cc3)cc2[C@H](Nc2ccc(Cl)cc2)C[C@@H]1C [Example 15ai]
25 to 200	50 to 70	CC(=O)N1c2ccc(-c3ccc(C(=O)NCCOCCOCCOCCOCCOCCNC(=O)[C@@H]4CN(C(=O)/C(C#N)=C/c5nccs5)C[C@H]4c4cccc(C)c4)cc3)cc2[C@H](Nc2ccc(Cl)cc2)C[C@@H]1C [Example 15aj]
25 to 200	≥ 70	CC(=O)N1c2ccc(-c3ccc(C(=O)NCCOCCOCCOCCOCCOCCNC(=O)[C@@H]4CN(C(=O)/C(C#N)=C/c5nccs5)C[C@H]4C4CCCCC4)cc3)cc2[C@H](Nc2ccc(Cl)cc2)C[C@@H]1C [Example 15p]
25 to 200	≥ 70	CC(=O)N1c2ccc(-c3ccc(C(=O)NCCOCCOCCOCCOCCOCCNC(=O)[C@@H]4CN(C(=O)/C(C#N)=C/C(C)(C)CN5CCOCC5)C[C@H]4C4CCCCC4)cc3)cc2[C@H](Nc2ccc(Cl)cc2)C[C@@H]1C [Example 15t]
> 200	30 to 50	CC(=O)N1c2ccc(-c3ccc(C(=O)NCCOCCOCCOCCOCCOCCNC(=O)[C@@H]4CN(C(=O)/C(C#N)=C/c5nccs5)C[C@H]4C(C)C)cc3)cc2[C@H](Nc2ccc(Cl)cc2)C[C@@H]1C [Example 15f]
25 to 200	50 to 70	CC(=O)N1c2ccc(-c3ccc(C(=O)NCCOCCOCCOCCOCCOCCNC(=O)[C@@H]4CN(C(=O)/C(C#N)=C/c5ccn(C)n5)C[C@H]4CC(C)C)cc3)cc2[C@H](Nc2ccc(Cl)cc2)C[C@@H]1C [Example 15m]
25 to 200	50 to 70	CC(=O)N1c2ccc(-c3ccc(C(=O)NCCOCCOCCOCCOCCOCCNC(=O)[C@@H]4CN(C(=O)/C(C#N)=C/c5ccn(C)n5)C[C@H]4C(C)C)cc3)cc2[C@H](Nc2ccc(Cl)cc2)C[C@@H]1C [Example 15h]
25 to 200	30 to 50	COc1ccc([C@@H]2CN(C(=O)/C(C#N)=C/c3nccs3)C[C@H]2C(=O)NCCOCCOCCOCCOCCOCCNC(=O)c2ccc(-c3ccc4c(c3)[C@H](Nc3ccc(Cl)cc3)C[C@H](C)N4C(C)=O)cc2)cc1 [Example 15z]
25 to 200	50 to 70	CC(=O)N1c2ccc(-c3ccc(C(=O)NCCOCCOCCOCCOCCOCCNC(=O)[C@@H]4CN(C(=O)/C(C#N)=C/C(C)(C)CN5CCOCC5)C[C@H]4CC(C)C)cc3)cc2[C@H](Nc2ccc(Cl)cc2)C[C@@H]1C [Example 15o]
25 to 200	≥ 70	CC(=O)N1c2ccc(-c3ccc(C(=O)NCCOCCOCCOCCOCCOCCNC(=O)[C@@H]4CN(C(=O)/C(C#N)=C/C(C)(C)C)C[C@H]4CC(C)C)cc3)cc2[C@H](Nc2ccc(Cl)cc2)C[C@@H]1C [Example 15l]
25 to 200	30 to 50	CC(=O)N1c2ccc(-c3ccc(C(=O)NCCOCCOCCOCCOCCOCCNC(=O)[C@@H]4CN(C(=O)/C(C#N)=C/c5ccn(C)n5)C[C@H]4c4ccc(F)cc4)cc3)cc2[C@H](Nc2ccc(Cl)cc2)C[C@@H]1C [Example 15ag]
25 to 200	50 to 70	CC(=O)N1c2ccc(-c3ccc(C(=O)NCCOCCOCCOCCOCCOCCNC(=O)[C@@H]4CN(C(=O)/C(C#N)=C/c5nccs5)C[C@H]4c4ccccc4)cc3)cc2[C@H](Nc2ccc(Cl)cc2)C[C@@H]1C [Example 15u]
> 200	30 to 50	CC(=O)N1c2ccc(-c3ccc(C(=O)NCCOCCOCCOCCOCCOCCNC(=O)[C@@H]4CN(C(=O)/C(C#N)=C/c5ccc(F)cc5)C[C@H]4c4ccc(F)cc4)cc3)cc2[C@H](Nc2ccc(Cl)cc2)C[C@@H]1C [Example 15ah]
